Tested on: T-47D spheroids with HUVEC/MSC, viability
Test: Anticancer human tumor T-47D cell line growth inhibition [PI3K];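 note: spheroids exposed to agents for seven days before reading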;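 for viability, T/C: percent of DMSO vehicle control luminescence so 100% = untreated growth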
Details: for viability, T/C: stronger effect = lower value
How it was run: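 Tumor cells were combined with HUVEC and MSCs into spheroids, then dosed with PI3K-inhibitor combinations over half-log ranges capped near clinical Cmax or 10 microM.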

[1] = curve of first compound, second compound 0.00316 µM
[2] = curve of first compound, second compound 0.01 µM
[3] = curve of first compound, second compound 0.0316 µM
[4] = curve of first compound, second compound 0.1 µM
[5] = curve of first compound, second compound 0.316 µM
[6] = curve of first compound, second compound 1 µM
[7] = second compound 0.00316 µM, first compound 0.0316 µM
[8] = second compound 0.00316 µM, first compound 0.1 µM
[9] = second compound 0.00316 µM, first compound 0.316 µM
[10] = second compound 0.00316 µM, first compound 1 µM
[11] = second compound 0.00316 µM, first compound 3.16 µM
[12] = second compound 0.00316 µM, first compound 10 µM
[13] = second compound 0.01 µM, first compound 0.0316 µM
[14] = second compound 0.01 µM, first compound 0.1 µM
[15] = second compound 0.01 µM, first compound 0.316 µM
[16] = second compound 0.01 µM, first compound 1 µM
[17] = second compound 0.01 µM, first compound 3.16 µM
[18] = second compound 0.01 µM, first compound 10 µM
[19] = second compound 0.0316 µM, first compound 0.0316 µM
[20] = second compound 0.0316 µM, first compound 0.1 µM
[21] = second compound 0.0316 µM, first compound 0.316 µM
[22] = second compound 0.0316 µM, first compound 1 µM
[23] = second compound 0.0316 µM, first compound 3.16 µM
[24] = second compound 0.0316 µM, first compound 10 µM
[25] = second compound 0.1 µM, first compound 0.0316 µM
[26] = second compound 0.1 µM, first compound 0.1 µM
[27] = second compound 0.1 µM, first compound 0.316 µM
[28] = second compound 0.1 µM, first compound 1 µM
[29] = second compound 0.1 µM, first compound 3.16 µM
[30] = second compound 0.1 µM, first compound 10 µM
[31] = second compound 0.316 µM, first compound 0.0316 µM
[32] = second compound 0.316 µM, first compound 0.1 µM
[33] = second compound 0.316 µM, first compound 0.316 µM
[34] = second compound 0.316 µM, first compound 1 µM
[35] = second compound 0.316 µM, first compound 3.16 µM
[36] = second compound 0.316 µM, first compound 10 µM
[37] = second compound 1 µM, first compound 0.0316 µM
[38] = second compound 1 µM, first compound 0.1 µM
[39] = second compound 1 µM, first compound 0.316 µM
[40] = second compound 1 µM, first compound 1 µM
[41] = second compound 1 µM, first compound 3.16 µM
[42] = second compound 1 µM, first compound 10 µM

`C[C@@H](NC(=O)c1ncnc(N)c1Cl)c1ncc(C(=O)Nc2cc(C(F)(F)F)c(Cl)cn2)s1` + COc1c(OCCCN2CCOCC2)ccc2c3n(c(=NC(=O)c4cnc(N)nc4)nc12)CCN3 gave an IC50 [1] of over 10000 nM, an IC50 [2] of over 10000 nM and an IC50 [3] of over 10000 nM. It also gave an IC50 [4] of under 31.6 nM, an IC50 [5] of under 31.6 nM and an IC50 [6] of under 31.6 nM. It also gave a viability, T/C [7] of 92.7%, a viability, T/C [8] of 82.9% and a viability, T/C [9] of 97.8%. It also gave a viability, T/C [10] of 106%, a viability, T/C [11] of 77.7% and a viability, T/C [12] of 86.6%. The viability, T/C [13] was 93.5%, the viability, T/C [14] was 90.5% and the viability, T/C [15] was 76.2%. It also gave a viability, T/C [16] of 78.5%, a viability, T/C [17] of 86.1% and a viability, T/C [18] of 85%. The viability, T/C [19] was 66.1%, the viability, T/C [20] was 71.2% and the viability, T/C [21] was 55.1%. For the same molecule, the viability, T/C [22] was 61.7%, the viability, T/C [23] was 65.4% and the viability, T/C [24] was 68.9%. It also gave a viability, T/C [25] of 40.3%, a viability, T/C [26] of 32.9% and a viability, T/C [27] of 35.5%. It also gave a viability, T/C [28] of 38.4%, a viability, T/C [29] of 48% and a viability, T/C [30] of 38.3%. The viability, T/C [31] was 11.7%, the viability, T/C [32] was 12.6% and the viability, T/C [33] was 17.4%. For the same molecule, the viability, T/C [34] was 16%, the viability, T/C [35] was 14.6% and the viability, T/C [36] was 20.3%. For the same molecule, the viability, T/C [37] was 4.16%, the viability, T/C [38] was 8.23% and the viability, T/C [39] was 6.02%. The viability, T/C [40] was 4.08%, the viability, T/C [41] was 4.3% and the viability, T/C [42] was 7.55%.

Molecule `CNC(=O)c1ccc(N2C(=S)N(c3ccc(C#N)c(C(F)(F)F)c3)C(=O)C2(C)C)cc1F` + CC(Nc1ccc2c(c1)OCCn1cc(N3C(=O)OCC3C(F)F)nc1-2)C(N)=O has an IC50 [1] of over 10000 nM, an IC50 [2] of over 10000 nM and an IC50 [3] of over 10000 nM. The IC50 [4] was over 10000 nM, the IC50 [5] was over 10000 nM and the IC50 [6] was over 10000 nM. It also gave a viability, T/C [7] of 120%, a viability, T/C [8] of 98.2% and a viability, T/C [9] of 104%. It also gave a viability, T/C [10] of 81.5%, a viability, T/C [11] of 104% and a viability, T/C [12] of 88.3%. The viability, T/C [13] was 105%, the viability, T/C [14] was 91.5% and the viability, T/C [15] was 88.2%. It also gave a viability, T/C [16] of 82.3%, a viability, T/C [17] of 91.2% and a viability, T/C [18] of 95.5%. For the same molecule, the viability, T/C [19] was 103%, the viability, T/C [20] was 95% and the viability, T/C [21] was 87.1%. For the same molecule, the viability, T/C [22] was 77.2%, the viability, T/C [23] was 91.2% and the viability, T/C [24] was 90.9%. The viability, T/C [25] was 94.7%, the viability, T/C [26] was 82.2% and the viability, T/C [27] was 99.7%. It also gave a viability, T/C [28] of 86.7%, a viability, T/C [29] of 90.2% and a viability, T/C [30] of 72.5%. For the same molecule, the viability, T/C [31] was 71.9%, the viability, T/C [32] was 79% and the viability, T/C [33] was 75.2%. It also gave a viability, T/C [34] of 71%, a viability, T/C [35] of 64.3% and a viability, T/C [36] of 60.6%. The viability, T/C [37] was 61%, the viability, T/C [38] was 68% and the viability, T/C [39] was 58.8%. It also gave a viability, T/C [40] of 60.4%, a viability, T/C [41] of 56.2% and a viability, T/C [42] of 48.8%.

Work on `CC(=O)c1c(C)c2cnc(Nc3ccc(N4CCNCC4)cn3)nc2n(C2CCCC2)c1=O` + Cc1nc(NC(=O)N2CCCC2C(N)=O)sc1-c1ccnc(C(C)(C)C(F)(F)F)c1 yielded an IC50 [3] of over 100 nM, an IC50 [4] of over 100 nM and an IC50 [5] of over 100 nM. The IC50 [6] was over 100 nM, the IC50 (curve of first compound, second compound 3.16 µM) was 30.4 nM and the IC50 (curve of first compound, second compound 10 µM) was under 0.316 nM. For the same molecule, the viability, T/C (second compound 0.0316 µM, first compound 0.000316 µM) was 109%, the viability, T/C (second compound 0.0316 µM, first compound 0.001 µM) was 101% and the viability, T/C (second compound 0.0316 µM, first compound 0.00316 µM) was 98.8%. For the same molecule, the viability, T/C (second compound 0.0316 µM, first compound 0.01 µM) was 98.4%, the viability, T/C [19] was 92.1% and the viability, T/C [20] was 89.2%. It also gave a viability, T/C (second compound 0.1 µM, first compound 0.000316 µM) of 101%, a viability, T/C (second compound 0.1 µM, first compound 0.001 µM) of 100% and a viability, T/C (second compound 0.1 µM, first compound 0.00316 µM) of 95.8%. It also gave a viability, T/C (second compound 0.1 µM, first compound 0.01 µM) of 107%, a viability, T/C [25] of 95.5% and a viability, T/C [26] of 83%. For the same molecule, the viability, T/C (second compound 0.316 µM, first compound 0.000316 µM) was 98.3%, the viability, T/C (second compound 0.316 µM, first compound 0.001 µM) was 110% and the viability, T/C (second compound 0.316 µM, first compound 0.00316 µM) was 88%. For the same molecule, the viability, T/C (second compound 0.316 µM, first compound 0.01 µM) was 99.5%, the viability, T/C [31] was 95.2% and the viability, T/C [32] was 75.3%. For the same molecule, the viability, T/C (second compound 1 µM, first compound 0.000316 µM) was 98.4%, the viability, T/C (second compound 1 µM, first compound 0.001 µM) was 90.7% and the viability, T/C (second compound 1 µM, first compound 0.00316 µM) was 85.9%. The viability, T/C (second compound 1 µM, first compound 0.01 µM) was 82.7%, the viability, T/C [37] was 86.6% and the viability, T/C [38] was 61.8%. It also gave a viability, T/C (second compound 3.16 µM, first compound 0.000316 µM) of 65.7%, a viability, T/C (second compound 3.16 µM, first compound 0.001 µM) of 66.8% and a viability, T/C (second compound 3.16 µM, first compound 0.00316 µM) of 69.3%. It also gave a viability, T/C (second compound 3.16 µM, first compound 0.01 µM) of 64.2%, a viability, T/C (second compound 3.16 µM, first compound 0.0316 µM) of 49.6% and a viability, T/C (second compound 3.16 µM, first compound 0.1 µM) of 42.6%. The viability, T/C (second compound 10 µM, first compound 0.000316 µM) was 37.1%, the viability, T/C (second compound 10 µM, first compound 0.001 µM) was 39.8% and the viability, T/C (second compound 10 µM, first compound 0.00316 µM) was 35.1%. The viability, T/C (second compound 10 µM, first compound 0.01 µM) was 31.3%, the viability, T/C (second compound 10 µM, first compound 0.0316 µM) was 23.1% and the viability, T/C (second compound 10 µM, first compound 0.1 µM) was 29.3%.

In the case of `Cc1nc(NC(=O)N2CCCC2C(N)=O)sc1-c1ccnc(C(C)(C)C(F)(F)F)c1` (configuration not stated), the viability, T/C (compound 0.0316 µM) is reported as 97.8% [middle of 8 runs], the viability, T/C (compound 0.1 µM) is reported as 96.2% [middle of 8 runs] and the viability, T/C (compound 1 µM) is reported as 97.6% [middle of 8 runs]. The viability, T/C (compound 3.16 µM) was 77% [middle of 7 runs], the viability, T/C (compound 10 µM) was 39.9% [middle of 8 runs] and the IC50 (compound alone, run of 04/24/2023) was 7.37 µM [middle of 8 runs].

Reference: PubChem BioAssay AID1963959 (Molecular Pharmacology Branch, DTP, NCI, 2024)
